Laboratory results published in PMC9574929, “Development of Hydrogen Sulfide-Releasing Carbonic Anhydrases IX- and XII-Selective Inhibitors with Enhanced Antihyperalgesic Action in a Rat Model of Arthritis” (Journal of Medicinal Chemistry, 2022).

Tests used:
[1] = Spectrophotometric methylene blue H2S release assay in rat liver homogenate; conditions: compound 150 μM, 37 °C
Protocol: The released H2S, trapped by zinc acetate to form zinc sulfide, reacts with N,N-dimethyl-1,4-phenylenediamine in the presence of iron(III) to yield methylene blue, which can be easily quantified by measuring absorbance at 667 nm (MB^+ form) or at 748 nm (MBH^2+).[42],[43] The compound H2S release in different conditions was monitored over time and quantified according to a calibration curve with Na2S (1–300 μM). Incubation of compound 3 and the hybrid derivatives in phosphate buffer at 37 °C either in the presence or absence of thiol compounds (cysteine or glutathione) produced no or a barely detectable H2S release, respectively. […]
Rat liver was homogenized in ice-cold 50 mM potassium phosphate buffer (pH 7.4).[41] Optimal w/v ratios of 1/20 were determined from preliminary experiments (data not shown). […] The released H2S concentration was measured as described previously.[45] […] Baseline H2S concentration was determined in incubates upon addition of trichloroacetic acid directly to the tissue homogenate in absence of the compound. Thus, N,N-dimethyl-p-phenylenediamine sulfate in HCl 5 M (20 mM; 200 μL) and FeCl3 in HCl 1.2 M (30 mM; 200 μL) were added to the mixture, and the absorbance of the formed methylene blue was measured after 30 min at 25 °C at 667 nm using a Varian Cary 300 UV–Visible spectrophotometer. […]

[2] = test system: rat model of arthritis induced by the intra-articular injection of complete Freund's adjuvant (CFA); assay: Paw pressure test, CFA-induced arthritis; assay type: in vivo
Protocol: (§1) Articular damage was induced by injection of Complete Freund’s Adjuvant (CFA; Sigma-Aldrich, St Louis, MO, USA), containing 1 mg/mL of heat-killed and dried Mycobacterium tuberculosis in paraffin oil and mannide monooleate, into the tibiotarsal joint.[50] Briefly, the rats were lightly anesthetized with 2% isoflurane, the left leg skin was sterilized with 75% ethyl alcohol, and the lateral malleolus was located by palpation. A 28-gauge needle was then inserted vertically to penetrate the skin and turned distally for insertion into the articular cavity at the gap between the tibiofibular and tarsal bone until a distinct loss of resistance was felt. A volume of 50 μL of CFA was then injected (day 0). Control rats received 50 μL of saline solution (day 0) in the tibiotarsal joint.
(§2) The hybrid derivatives 26, 29, 30, and 31 (1, 10, and 30 mg/kg) were suspended in a 1% solution of carboxymethylcellulose (CMC) sodium salt and acutely per os administered starting from day 14 after CFA i.a. injection, when arthritis was well established. The H2S releaser 3 and CAI 15 were also administered alone or in coadministration at the equimolar dose of compound 30 30 mg/kg (13.23 and 17.71 mg/kg, respectively). The antihypersensitivity effects were evaluated over time by the Paw pressure and Incapacitance tests.
The nociceptive threshold of rats was determined with an analgesimeter (Ugo Basile, Varese, Italy), according to the method described by Leighton et al.[51] and Maresca et al.,[52] (doi: 10.1111/jphp.12828). Briefly, a constantly increasing pressure was applied to a small area of the dorsal surface of the hind paw using a blunt conical probe by a mechanical device. Mechanical pressure was increased until vocalization or a withdrawal reflex occurred while rats were lightly restrained. Vocalization or withdrawal reflex thresholds were expressed in grams. […]

[3] = test system: rat model of arthritis induced by the intra-articular injection of complete Freund's adjuvant (CFA); assay: Incapacitance test, CFA-induced arthritis; assay type: in vivo
Protocol: as §1, §2
Weight-bearing changes were measured using an incapacitance apparatus (Linton Instrumentation, Norfolk, U.K.) to detect changes in postural equilibrium after a hind limb injury.[53],[54] Rats were trained to stand on their hind paws in a box with an inclined plane (65° from horizontal). This box was placed above the incapacitance apparatus. This allowed us to independently measure the weight that the animal applied on each hind limb. The value reported for each animal is the mean of five consecutive measurements. In the absence of hind limb injury, rats applied an equal weight on both hind limbs, indicating postural equilibrium, whereas an unequal distribution of weight on the hind limbs indicated a monolateral decreased pain threshold. Data are expressed as the difference between the weight applied to the limb contralateral to the injury and the weight applied to the ipsilateral limb (Δ weight).

hCA XII [4] = target: T1, hCA XII (Homo sapiens, UniProt O43570); assay: Stopped-flow CO2 hydrase assay, hCA XII; conditions: selectivity index, ratio of KIs
Protocol: (§3) The uncatalyzed rates were determined in the same manner and subtracted from the total observed rates. Stock solutions of inhibitor (0.1 mM) were prepared in distilled-deionized water and dilutions up to 0.01 nM were done thereafter with the assay buffer. […] The inhibition constants were obtained by nonlinear least-squares methods using PRISM 3 and the Cheng–Prusoff equation, as reported earlier,[39] and represent the mean from at least three different determinations.

hCA IV [5] = target: T2, hCA IV (Homo sapiens, UniProt P22748); assay: Stopped-flow CO2 hydrase assay, hCA IV; conditions: selectivity index, ratio of KIs
Protocol: as §3

hCA IX [6] = target: T3, hCA IX (Homo sapiens, UniProt Q16790); parameters: made in house; method as in Bonardi et al. [29,30]; conditions: stopped-flow CO2 hydrase assay; Table S1 footnote b; ref Bonardi et al. [29,30]; cited from earlier work
hCA I = hCA I (Homo sapiens, UniProt P00915); parameters: made in house; method as in Bonardi et al. [29,30]; conditions: stopped-flow CO2 hydrase assay; Table S1 footnote b; ref Bonardi et al. [29,30]; cited from earlier work
hCA II [7] = target: T4, hCA II (Homo sapiens, UniProt P00918); parameters: made in house; method as in Bonardi et al. [29,30]; conditions: stopped-flow CO2 hydrase assay; Table S1 footnote b; ref Bonardi et al. [29,30]; cited from earlier work
hCA IV [8] = target: T2, hCA IV; parameters: made in house; method as in Bonardi et al. [29,30]; conditions: stopped-flow CO2 hydrase assay; Table S1 footnote b; ref Bonardi et al. [29,30]; cited from earlier work
hCA II [9] = target: T4, hCA II; assay: Stopped-flow CO2 hydrase assay, hCA II; conditions: selectivity index, ratio of KIs
Protocol: as §3

hCA IX [10] = target: T3, hCA IX; assay: Stopped-flow CO2 hydrase assay, hCA IX; conditions: selectivity index, ratio of KIs
hCA XII [11] = target: T1, hCA XII; parameters: made in house; method as in Bonardi et al. [29,30]; conditions: stopped-flow CO2 hydrase assay; Table S1 footnote b; ref Bonardi et al. [29,30]; cited from earlier work
[12] = per os, 3 13.23 mg/kg, 15 17.71 mg/kg

T2 sequence (P22748 19-312): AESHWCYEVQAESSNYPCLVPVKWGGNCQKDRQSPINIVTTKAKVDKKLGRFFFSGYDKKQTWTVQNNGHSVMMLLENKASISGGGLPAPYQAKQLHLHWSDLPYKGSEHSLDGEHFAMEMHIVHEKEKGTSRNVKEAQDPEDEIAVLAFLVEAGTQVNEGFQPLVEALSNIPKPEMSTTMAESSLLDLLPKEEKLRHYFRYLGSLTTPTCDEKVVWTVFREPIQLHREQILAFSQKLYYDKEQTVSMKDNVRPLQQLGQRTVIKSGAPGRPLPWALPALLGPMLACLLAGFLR
T1 sequence (O43570 25-354): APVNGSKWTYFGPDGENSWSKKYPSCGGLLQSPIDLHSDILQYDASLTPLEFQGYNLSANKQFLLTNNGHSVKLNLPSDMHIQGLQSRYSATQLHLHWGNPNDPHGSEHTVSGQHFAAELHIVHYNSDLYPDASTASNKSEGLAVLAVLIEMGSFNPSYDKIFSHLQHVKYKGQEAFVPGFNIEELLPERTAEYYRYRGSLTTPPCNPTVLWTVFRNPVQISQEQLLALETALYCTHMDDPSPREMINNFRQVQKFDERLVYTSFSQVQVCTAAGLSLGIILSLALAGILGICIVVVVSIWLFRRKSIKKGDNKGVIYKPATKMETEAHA
Chain of hCA I (P00915 whole entry): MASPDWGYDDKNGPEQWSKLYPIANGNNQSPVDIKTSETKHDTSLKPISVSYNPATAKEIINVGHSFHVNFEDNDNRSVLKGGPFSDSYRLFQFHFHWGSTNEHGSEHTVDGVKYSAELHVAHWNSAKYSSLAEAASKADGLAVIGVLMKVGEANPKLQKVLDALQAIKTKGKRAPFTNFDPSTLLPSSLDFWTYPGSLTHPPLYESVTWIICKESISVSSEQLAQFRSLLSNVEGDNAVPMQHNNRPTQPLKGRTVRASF

| SI CA I/XII (hCA XII [4]) | SI CA II/XII (hCA XII [4]) | SI CA I/IV (hCA IV [5]) | SI CA II/IV (hCA IV [5]) | SI CA I/II (hCA II [9]) | SI CA I/IX (hCA IX [10]) | SI CA II/IX (hCA IX [10]) | SMILES | time at which H2S release peaked / reached a plateau [1] [min] | time of peak antihyperalgesic effect, Paw pressure test ([2]; after per os administration) [min] | antihyperalgesic effect, Paw pressure test, dose equimolar to 30 30 mg/kg [2, 12] | time of peak of efficacy, Incapacitance test ([3]; after per os treatment) [min] | antihyperalgesic effect, Incapacitance test, dose equimolar to 30 30 mg/kg [3, 12] | Ki (hCA IX [6]) [nM] | Ki (hCA I) [nM] | Ki (hCA II [7]) [nM] | Ki (hCA IV [8]) [µM] | Ki (hCA XII [11]) [nM] |
| --- | --- | --- | --- | --- | --- | --- | --- | --- | --- | --- | --- | --- | --- | --- | --- | --- | --- |
| – | – | – | – | – | – | – | O=C(O)c1ccc(-c2cssc2=S)cc1 [Compound 3, 4-(3-Thioxo-3H-1,2-dithiol-4-yl)benzoic Acid] | ~20 | 15 | rapid antihyperalgesic effect that peaked at 15 min and totally disappeared after 45 min | 15 | comparable to that of the hybrid analogue 30 at its optimal dose | – | – | – | – | – |
| 0.9 | 1.4 | 0.01 | 0.02 | 0.7 | 1.0 | 1.5 | N#CCCNCCc1ccc(S(N)(=O)=O)cc1 [Compound 18, 4-(2-((2-Cyanoethyl)amino)ethyl)benzenesulfonamide] | – | – | – | – | – | 105 | 105 | 154 | 5.55 | 113 |
